In patent publication US12290519B2, “Anti-inflammatory coupling compound drug, and preparation method therefor and use thereof” (COVAL BIOPHARMA (SHANGHAI) CO., LTD., priority 2021, dated 2025):

Assay: Hydrolysis rate / drug release rate of the compounds (release of JAK inhibitor, HPLC)
Assay type: physicochemical
Conditions: % release of JAK inhibitor from sample in acetonitrile/water=7/3 (v/v), 37° C. constant temperature shaker, sampled days 1-4, HPLC
Procedure: Analysis Method for Hydrolysis Rate of Compounds of the Present Invention
1. Preparation of Standard Working Curve Solution
(§1) About 10 mg of JAK inhibitors (tofacitinib and baricitinib) reference substances were weighed into a 25 mL volumetric flask, acetonitrile/water=7/3 (v/v) was added to dissolve and dilute to the marked volume, serving as a stock solution. The stock solution was diluted with a suitable dilution factor to obtain linear solutions of each concentration: 0.0002 mg/mL, 0.0004 mg/mL, 0.004 mg/mL, 0.04 mg/mL, and 0.08 mg/mL.
as §1, with “(Oclacitinib, Ruxolitinib, Delgocitinib,” for “(tofacitinib”, “Upadacitinib)” for “baricitinib)”
2. Preparation of Sample Solution
About 5 mg of the sample (the compound prepared in the present invention) was weighed into a 20 mL volumetric flask, acetonitrile/water=7/3 (v/v) was added to dissolve and dilute to the marked volume, serving as a stock solution. An appropriate amount of HPLC was loaded as the 0-day sample. The test solution was sealed with a sealing film and placed in a 37° C. constant temperature shaker. The test samples were taken at the same time on days 1, 2, 3, and 4 respectively. the release amount of JAK inhibitor in the sample was calculated according to the sample weight and JAK inhibitor standard curve.
3. Calculation Formula % Release of JAK Inhibitor r=100%×((AJAK Inhibitor−b)/a)/((W/20×M2/M1) wherein • AJAK inhibitor is the peak area of JAK inhibitor in the sample chromatogram • b is the intercept of the standard curve M1 is the molecular weight of the sample a is the slope of the standard curve
W is the sample weight (mg) M2 is the molecular weight of the JAK inhibitor
4. Chromatographic Conditions

Row | SMILES | Release Rate (%/day)
1 | CCC(C(=O)n1ccc2c1ncc1ncc([C@H]3CN(C(=O)NCC(F)(F)F)C[C@H]3CC)n12)c1ccc(N2Cc3ccccc3C2=O)cc1 (stereo partly shown) [Ex. 138] | 2.15
2 | CCS(=O)(=O)N1CC(CC#N)(n2cc(-c3ncnc4c3ccn4COC(=O)C(C)c3cccc(C(=O)c4ccccc4)c3)cn2)C1 (stereo not shown) [Ex. 62, 4-(1-(3-(cyanomethyl)-1-(ethylsulfonyl)azetidin-3-yl)-1H-pyrazol-4-yl)-7H-pyrrolo [2,3-d] pyrimidin-7-yl) methyl 2-(3-benzoylphenyl) propanoate] | 0.01
3 | CCS(=O)(=O)N1CC(CC#N)(n2cc(-c3ncnc4c3ccn4C(=O)C(C)c3cccc(Oc4ccccc4)c3)cn2)C1 (stereo not shown) [Ex. 21, 2-(1-(Ethylsulfonyl)-3-(4-(7-(2-(3-phenoxyphenyl)propanoyl)-7H-pyrrolo [2,3-d]pyrimidin-4-yl)-1H-pyrazol-1-yl)azetidin-3-yl) acetonitrile] | 4.6
4 | CCS(=O)(=O)N1CC(CC#N)(n2cc(-c3ncnc4c3ccn4COC(=O)[C@@H](C)c3ccc4cc(OC)ccc4c3)cn2)C1 [Ex. 61, Methyl (4-(1-(3-(cyanomethyl)-1-(ethylsulfonyl)azetidin-3-yl)-1H-pyrazol-4-yl)-7H-pyrrolo [2,3-d]pyrimidin-7-yl) (S)-2-(6-methoxynaphthalen-2-yl) propanoate] | <0.01
5 | CC[C@@H]1CN(C(=O)NCC(F)(F)F)C[C@@H]1c1cnc2cnc3c(ccn3C(=O)C(C)c3cccc(C(=O)c4ccccc4)c3)n12 (stereo partly drawn) [Ex. 126, (3R, 4S)-3-(3-(2-(3-benzoylphenyl)propanoyl)-3H-imidazo [1,2-a]pyrrolo [2,3-e]pyrazin-8-yl)-4-ethyl-N-(2,2,2-trifluoroethyl) pyrrolidine-1-carboxamide] | 7.80
6 | CCS(=O)(=O)N1CC(CC#N)(n2cc(-c3ncnc4c3ccn4COC(=O)C(C)c3cccc(Oc4ccccc4)c3)cn2)C1 (stereo not shown) [Ex. 71, Methyl (4-(1-(3-(cyanomethyl)-1-(ethylsulfonyl)azetidin-3-yl)-1H-pyrazol-4-yl)-7H-pyrrolo [2,3-d]pyrimidin-7-yl) 2-(3-phenoxyphenyl) propanoate] | 0.01
7 | CCc1cccc2c3c([nH]c12)C(CC)(CC(=O)n1ccc2c(N(C)[C@H]4CN(C(=O)CC#N)CC[C@H]4C)ncnc21)OCC3 (stereo partly drawn) [Ex. 14, 3-((3R,4R)-3-((7-(2-(1,8-diethyl-1,3,4,9-tetrahydropyrano[3,4-b]indol-1-yl)acetyl)-7H-pyrrolo[2,3-d]pyrimidin-4-yl) (methyl)amino)-4-methylpiperidin-1-yl)-3-oxopropanenitrile] | 0.98
8 | CNS(=O)(=O)C[C@H]1CC[C@H](N(C)c2ncnc3c2ccn3COC(=O)[C@@H](NC(=O)OC(C)(C)C)c2ccccc2)CC1 [Ex. 91, (4-(Methyl ((trans)-4-((N-methylsulfamoyl)methyl)cyclohexyl)amino)-7H-pyrrolo [2,3-d]pyrimidin-7-yl) methyl (S)-2-((tert-butoxycarbonyl)amino)-2-phenylacetate] | 1.65
9 | C[C@@H]1CCN(C(=O)CC#N)C[C@@H]1N(C)c1ncnc2c1ccn2COC(=O)[C@@H](NC(=O)OC(C)(C)C)c1ccccc1 [Ex. 64, (4-(((3R, 4R)-1-(2-cyanoacetyl)-4-methylpiperidin-3-yl) (methyl)amino)-7H-pyrrolo [2,3-d]pyrimidin-7-yl) methyl (S)-2-((tert-butoxycarbonyl)amino)-2-phenylacetate] | 0.88
10 | CC(C)Cc1ccc([C@H](C)C(=O)n2ccc3c(N4CC[C@]5(C4)[C@@H](C)CN5C(=O)CC#N)ncnc32)cc1 [Ex. 140, 3-((3S, 4R)-6-(7-((S)-2-(4-isobutylphenyl)propanoyl)-7H-pyrrolo [2,3-d]pyrimidin-4-yl)-3-methyl-1,6-diazaspiro [3.4]oct-1-yl)-3-oxopropanenitrile] | 8.10
11 | CCS(=O)(=O)N1CC(CC#N)(n2cc(-c3ncnc4c3ccn4C(=O)[C@@H](NC(=O)OC(C)(C)C)c3ccccc3)cn2)C1 [Ex. 26, Tert-butyl (S)-(2-(4-(1-(3-(cyanomethyl)-1-(ethylsulfonyl)azetidin-3-yl)-1H-pyrazol-4-yl)-7H-pyrrolo [2,3-d]pyrimidin-7-yl)-2-oxo-1-phenylethyl) carbamate] | 36.19
12 | CC(C(=O)n1ccc2c(-c3cnn([C@H](CC#N)C4CCCC4)c3)ncnc21)c1ccc(-c2ccccc2)c(F)c1 (stereo partly drawn) [Ex. 33, (3R)-3-cyclopentyl-3-(4-(7-(2-(2-fluoro-[1, 1′-biphenyl]-4-yl)propanoyl)-7H-pyrrolo [2,3-d]pyrimidin-4-yl)-1H-pyrazol-1-yl) propanenitrile] | 5.01
13 | CC(C(=O)n1ccc2c(-c3cnn([C@H](CC#N)C4CCCC4)c3)ncnc21)c1ccc(CC2CCCC2=O)cc1 (stereo partly drawn) [Ex. 77, (3R)-3-cyclopentyl-3-(4-(7-(2-(4-((2-oxocyclopentyl)methyl)phenyl)propanoyl)-7H-pyrrolo [2,3-d]pyrimidin-4-yl)-1H-pyrazol-1-yl) propanenitrile] | 3.69

The next lines start with the values.

Row | Release Rate (%/day) | SMILES
14 | 0.003 | CCS(=O)(=O)N1CC(CC#N)(n2cc(-c3ncnc4c3ccn4COC(=O)c3ccccc3Nc3cccc(C)c3C)cn2)C1 [Ex. 83, Methyl (4-(1-(3-(cyanomethyl)-1-(ethylsulfonyl)azetidin-3-yl)-1H-pyrazol-4-yl)-7H-pyrrolo [2,3-d]pyrimidin-7-yl) 2-((2,3-dimethylphenyl)amino) benzoate]
15 | 3.32 | Cc1cccc(Nc2ccccc2C(=O)n2ccc3c(N(C)[C@H]4CN(C(=O)CC#N)CC[C@H]4C)ncnc32)c1C [Ex. 4, 3-((3R,4R)-3-((7-(2-((2,3-dimethylphenyl)amino)benzoyl)-7H-pyrrolo[2,3-d]pyrimidin-4-yl)(methyl)amino)-4-methylpiperidin-1-yl)-3-oxopropanenitrile]
16 | 0.08 | CCC(C(=O)OCn1ccc2c(N(C)C3CCC(CS(=O)(=O)NC)CC3)ncnc21)c1ccc(N2Cc3ccccc3C2=O)cc1 (stereo not drawn) [Ex. 117, (4-(Methyl ((trans)-4-((N-methylsulfamoyl)methyl)cyclohexyl)amino)-7H-pyrrolo [2,3-d]pyrimidin-7-yl) methyl 2-(4-(1-)oxoisoindolin-2-yl) phenyl) butanoate]
17 | 0.11 | CC(C(=O)OCn1ccc2c(N(C)[C@H]3CN(C(=O)CC#N)CC[C@H]3C)ncnc21)c1cccc(C(=O)c2ccccc2)c1 (stereo partly drawn) [Ex. 49, (4-(((3R, 4R)-1-(2-cyanoacetyl)-4-methylpiperidin-3-yl) (methyl)amino)-7H-pyrrolo [2,3-d]pyrimidin-7-yl) methyl 2-(3-benzoylphenyl) propanoate]
18 | 0.16 | COc1ccc2c(c1)c(CC(=O)OCn1ccc3c(N(C)[C@H]4CN(C(=O)CC#N)CC[C@H]4C)ncnc31)c(C)n2C(=O)c1ccc(Cl)cc1 [Ex. 55, (4-(((3R, 4R)-1-(2-cyanoacetyl)-4-methylpiperidin-3-yl) (methyl)amino)-7H-pyrrolo [2,3-d]pyrimidin-7-yl) methyl 2-(1-(4-chlorobenzoyl)-5-methoxy-2-methyl-1H-indol-3-yl) acetate]
19 | 0.82 | CNS(=O)(=O)C[C@H]1CC[C@H](N(C)c2ncnc3c2ccn3COC(=O)Cc2ccccc2Nc2c(Cl)cccc2Cl)CC1 [Ex. 92, (4-(Methyl ((trans)-4-((N-methylsulfamoyl)methyl)cyclohexyl)amino)-7H-pyrrolo [2,3-d]pyrimidin-7-yl) methyl 2-(2-((2,6-dichlorophenyl)amino)phenyl) acetate]
20 | 0.83 | CNS(=O)(=O)C[C@H]1CC[C@H](N(C)c2ncnc3c2ccn3COC(=O)Cc2ccc(NC(C)=O)cc2)CC1 [Ex. 93, (4-(Methyl ((trans)-4-((N-methylsulfamoyl)methyl)cyclohexyl)amino)-7H-pyrrolo [2,3-d]pyrimidin-7-yl) methyl 2-(4-acetamidophenyl) acetate]
21 | 0.42 | CNS(=O)(=O)CC1CCC(N(C)c2ncnc3c2ccn3COC(=O)Cc2c(C)n(C(=O)c3ccc(Cl)cc3)c3ccc(OC)cc23)CC1 (stereo not drawn) [Ex. 116, (4-(Methyl ((trans)-4-((N-methylsulfamoyl)methyl)cyclohexyl)amino)-7H-pyrrolo [2,3-d]pyrimidin-7-yl) methyl 2-(1-(4-chlorobenzoyl)-5-methoxy-2-methyl-1H-indol-3-yl) acetate]
22 | 0.42 | CNS(=O)(=O)CC1CCC(N(C)c2ncnc3c2ccn3COC(=O)C(C)c2ccc(-c3ccccc3)c(F)c2)CC1 (stereo not drawn) [Ex. 113, (4-(Methyl ((trans)-4-((N-methylsulfamoyl)methyl)cyclohexyl)amino)-7H-pyrrolo [2,3-d]pyrimidin-7-yl) methyl 2-(2-fluoro-[1, 1′-biphenyl]-4-yl) propanoate]
